The record followed here is patent publication US4727074A, “2-(phenylmethylene)-1-(diaminoalkoxy) cycloalkanes and their pharmaceutical uses” (priority 1983, dated 1988).

Molecules are shown by their SMILES.

One data set concerns writhing reactions. In words: Analgesic effect on mice (acetic acid writhing). In kind it is in vivo. The following applies: for ED50: Mus musculus, po, 1 h, read-out: ED50 (analgesic effect); for Therapeutical index (analgesic): Table II, LD50/ED50, mice; for ED50 (analgesic effect) / ED50 (analgesic effect), inactive: mice, oral; for ED50 (analgesic effect): one hour prior to 0.5% acetic acid. As for the experimental part: (3) Analgesic effect on mice
To mice 0.4 ml of 0.5% acetic acid is […] administered. After 5 minutes the characteristic writhing reactions are counted for a period of 5 minutes. The test compound is administered orally one hour prior to the administration of acetic acid. The activity is expressed in the percentage of the data obtained for the control group.

Data set [1] relates to Hexobarbital sleeping time. In words: animal or person. In kind it is in vivo. The following applies: for ED50: Mus musculus, iv, read-out: ED50 (narcosis potentiating effect); for Therapeutical index (narcosis potentiating): Table I, LD50/ED50, mice; for ED50 (narcosis potentiating effect): mice, Hexobarbital i.v., effect = sleeping time 2.5 times longer than control. The procedure: (2) Narcosis potentiating effect
To mice having a body weight of 20-24 g Hexobarbital is administered intravenously in a dose of […]. The sleeping time of the treated and control animals is measured.

Data set [2] is described as follows: Acute toxicity on mice (oral). Format: in vivo. The following applies: mouse, in vivo, 4 days observation. As for the experimental part:
(§1) (1) Acute toxicity on mice
(§2) The acute toxicity is determined on male and female white mice of the CFLP strain. The body weight of the animals amounts to 18-24 g. The test compound is administered orally in a dose of 20 ml/kg. After treatment the animals are placed in a mouse box and kept on scrapings litter at room temperature. The animals receive mouse fodder and tap water ad libitum.

Data set [3] has as its system white mice of the CFLP strain. Put plainly: Acute toxicity on mice (oral). Format: in vivo. The conditions noted are these: 4 days observation. The procedure:
as §1, §2

The nature of data set [4]: Acute toxicity i.v. (LD50 of Table IV). The following applies: rat, in vivo.
For the next data set, the system named is aconitine. Put plainly: animal or person. In kind it is in vivo, rats. The conditions noted are these: for ED50: Rattus norvegicus, iv, read-out: Percental aconitine inhibition ED50; for Therapeutical index (antiarrhythmial): Table IV, LD50 i.v./ED50; for Percental inhibition of aconitine: rats, 2 minutes before aconitine. The procedure:
(4) Antiarrhythmial effect on rats
The antiarrhythmial effect is determined on rats (both male and female; body weight 160-200 g) according to the modified test of Marmo et al. [Marmo et al.: Arzneimittelforschung 20, 12 (1970)]. Aconitine is intravenously administered in the form of a bolus injection. The ECG deviations are followed for 5 minutes by a standard II method. The test compound is administered intravenously 2 minutes before the addition of aconitine.
In Table IV the antiarrhythmial effect of a representative compound of the present invention is compared to that of a very active compound specifically disclosed in Hungarian Pat. No. 169,298. The test is carried out as disclosed in connection with Table III.

The ED50 is the dose at which the effect has come halfway, by size or by number of responders. As a reminder, the LD50 is the dose at which mortality reaches 50%. A higher LD50 goes with a less toxic substance. Regarding `C(=C1/CCCC/C1=N\OCCCN1CCN(c2ccccc2)CC1)/c1ccccc1` [Example 1, 2-[(E)-phenylmethylene]-1-[(E)-(4'-phenyl-piperazinyl-propoxyimino)]-cyclohexane], the median effective dose (ED50) (in the data set with writhing reactions; in data set [1]) was 200 mg/kg in each case. Besides, the “Therapeutical index (analgesic)” value in the data set on writhing reactions is on record as greater than 10.0. Besides, in data set [1], the “Therapeutical index (narcosis potentiating)” value turned out to be 10.0. Also, the median lethal dose (LD50) at 96 h in data set [2] (po, Table I) was 2000 mg/kg; in data set [2] (po, Table II), greater than 2000 mg/kg.
For `Clc1cccc(/C=C2\CCCCC\C2=N/OCCCN2CCN(Cc3ccccc3)CC2)c1` [Example 2, 2-[(E)-(m-chloro-phenylmethylene)]-1-[(E)-(4'-benzylpiperazinyl-propoxyimino)]-cycloheptane], in the data set with writhing reactions, the “Therapeutical index (analgesic)” value is reported as 17.2 and the “ED50 (analgesic effect)” value is reported as 43 mg/kg. For the same compound, the 50% lethal dose (LD50) in data set [3] (Table II) is listed as 740 mg/kg.
Take `CC(C)N(CCCO/N=C1\CCCC\C1=C/c1ccc(Cl)cc1)C(C)C` [Example 3, 2-[(E)-(p-chloro-phenylmethylene)]-1-[(E)-(3'-diisopropylamino-propoxyimino)]-cyclohexane]: in the data set with writhing reactions, the ED50 was found to be 45 mg/kg and the “Therapeutical index (analgesic)” value is given as 24.2. Besides, in data set [2] (po, Table II), the 50% lethal dose (LD50) at 96 h stood at 1100 mg/kg.
In data set [4], `CC(C)N(CCCO/N=C1\CCCC\C1=C/c1ccccc1)C(C)C` [Example 4, 2-[(E)-phenylmethylene]-1-[(E)-(3'-diisopropylamino-propoxyimino)]-cyclohexane] gave an LD50 of 12.5 mg/kg. In the data set with aconitine, the ED50 was 0.54 mg/kg and the “Therapeutical index (antiarrhythmial)” value was determined as 23.14. Further, the “Percental inhibition of aconitine” value in the data set with aconitine (dose 1 mg/kg i.v.) worked out at 86.2 Percental.
As for `CC(C)N(CCO/N=C1\CCCCC\C1=C\c1ccccc1)C(C)C` [Example 5, 2-[(Z)-phenylmethylene]-1-[(E)-(2'-diisopropylamino-ethoxyimino)]-cycloheptane], in data set [1], the median effective dose (ED50) came out at 40 mg/kg and the “Therapeutical index (narcosis potentiating)” value was 20.0. In addition, the “Percental inhibition of aconitine” value with aconitine (dose 4 mg/kg i.v.) is given as 34.7 Percental. Further, in data set [2] (po, Table I), the median lethal dose (LD50) at 96 h was determined as 800 mg/kg.
`CC(CO/N=C1\CCCCC\C1=C/c1ccccc1)N(C)C` (stereo not drawn) [Example 8, 2-[(E)-phenylmethylene]-1-[(E)-(2'-dimethylamino-2'-methyl-1-ethoxyimino)]-cycloheptane]: in data set [1], the 50% effective dose (ED50) worked out at 22 mg/kg and the “Therapeutical index (narcosis potentiating)” value amounted to 36.4. Also, the LD50 at 96 h in data set [2] (po, Table I) is 800 mg/kg.
For `CC(CO/N=C1\CCCC\C1=C/c1ccccc1)N(C)C` (stereo not drawn) [Example 9, 2-[(E)-phenylmethylene]-1-[(E)-(2'-dimethylamino-2'-methyl-1-ethoxyimino)]-cyclohexane], in that order: 23 mg/kg, 26.0 and 600 mg/kg.
In the case of `CC(C)N(CCO/N=C1\CCCCCC\C1=C/c1ccccc1)C(C)C` [Example 10, 2-[(E)-phenylmethylene]-1-[(E)-(2'-diisopropylamino-ethoxyimino)]-cyclooctane], in the data set on writhing reactions, the ED50 came out at 58 mg/kg and the “Therapeutical index (analgesic)” value was found to be 6.9. In addition, in the data set on aconitine (dose 4 mg/kg i.v.), the “Percental inhibition of aconitine” value worked out at 57.6 Percental. The LD50 at 96 h in data set [2] (po, Table II) came out at 400 mg/kg.
For `CN(C)CCCO/N=C1\CCCCCC\C1=C/c1ccccc1` [Example 11], in the data set on writhing reactions, the “Therapeutical index (analgesic)” value was 6.7 and the “ED50 (analgesic effect)” value was found to be 150 mg/kg. Further, in data set [1], the “Therapeutical index (narcosis potentiating)” value was 500.0 and the “ED50 (narcosis potentiating effect)” value turned out to be 2 mg/kg. For the same compound, the 50% lethal dose (LD50) in data set [3] (Table I) worked out at 1000 mg/kg. The compound also came in with an LD50 in data set [3] (Table II) of 1000 mg/kg.
For the compound `CC(C)N(CCO/N=C1\CCCC\C1=C/c1ccccc1)C(C)C` [Example 12], the “Percental inhibition of aconitine” value in the data set with aconitine (dose 2 mg/kg i.v.) stood at 39.2 Percental.
`CN(C)CCO/N=C1\CCCC\C1=C/c1ccc(Cl)cc1` [Example 13]: in data set [1], the ED50 was determined as 10 mg/kg and the “Therapeutical index (narcosis potentiating)” value was found to be 200.0. For the same compound, in the data set with aconitine (dose 2 mg/kg i.v.), the “Percental inhibition of aconitine” value is 35.3 Percental. The LD50 at 96 h in data set [2] (po, Table I) was found to be 2000 mg/kg.
For `CCN(CC)CC(=O)Nc1c(C)cccc1C` [Lidocaine, N,N-diethyl-2,6-dimethyl-acetanilide, reference compound], the “Percental inhibition of aconitine” value with aconitine (dose 4 mg/kg i.v.) was 23.5 Percental.
In the case of `CCCC(C)(COC(N)=O)COC(N)=O` [Meprobamate, 2-methyl-2-n-propyl-1,3-propanediol-dicarbamate, reference compound], in data set [1], the median effective dose (ED50) was 260 mg/kg and the “Therapeutical index (narcosis potentiating)” value is recorded as 4.2. Further, in data set [2] (Table I), the LD50 at 96 h worked out at 1100 mg/kg.
Take `CC(=O)Nc1ccc(O)cc1` [Paracetamol, 4-hydroxy-acetanilide, reference compound]: the median effective dose (ED50) with writhing reactions was found to be 180 mg/kg.
For the compound `CN(C)CCCON=C1CCCCC1Cc1ccccc1` (stereo not drawn) [Reference compound A, 2-benzyl-1-(3'-dimethylamino-propoxy-imino)-cyclohexane, reference compound], in data set [1], the “ED50 (narcosis potentiating effect)” value is “inactive in a dose of 50 mg/kg”. The compound further came in with an LD50 at 96 h in data set [2] (po, Table II) of 250 mg/kg.
`COc1ccccc1C=C1CCCCC1=NOCC(C)CN(C)C` (stereo not drawn) [Reference compound C, 1-(2'-methyl-3'-dimethylaminopropoxyimino)-2-(o-methoxy-benzal)-cyclohexane, reference compound]: the “ED50 (narcosis potentiating effect)” value in data set [1] was “inactive in a dose of 100 mg/kg”.
With `CN(C)CCCON=C1CCCCC1Cc1ccc(Cl)cc1` (stereo not drawn) [Reference compound E, 1-(3'-dimethylamino-propoxyimino)-2-(p-chlorobenzyl)-cyclohexane, reference compound], the “ED50 (narcosis potentiating effect)” value in data set [1] was “inactive in a dose of 170 mg/kg”.
For the compound `COc1ccc(C=C2CCCCC2=NOCCCN(C)C)cc1` [Reference compound F, 1-(3'-dimethylamino-propoxyimino)-2-(p-methoxybenzal)-cyclohexane, reference compound], the “ED50 (analgesic effect), inactive” value in the data set with writhing reactions (in a dose of 350 mg/kg) is “inactive”. The median lethal dose (LD50) at 96 h in data set [2] (po, Table II) amounted to 1750 mg/kg.
Take `CC(C)N(CCON=C1CCCCCC1=Cc1ccccc1)C(C)C` [Reference compound G, 2-benzal-1-(2'-diisopropylamino-ethoxyimino)-cycloheptane, reference compound]: in the data set with writhing reactions (in a dose of 65 mg/kg), the “ED50 (analgesic effect), inactive” value is “inactive”. Besides, the LD50 in data set [4] was 21.2 mg/kg. Further, in the data set on aconitine, the ED50 was 2 mg/kg and the “Therapeutical index (antiarrhythmial)” value is listed as 10.59. Further, the LD50 at 96 h in data set [2] (po, Table II) amounted to 325 mg/kg.
